From ChEMBL document CHEMBL5214952, “Unique iminotetrahydroberberine-corbelled metronidazoles as potential membrane active broad-spectrum antibacterial agents” (Bioorg Med Chem Lett, 2022)
≈ marks a conversion by molar mass, not a printed value. Calls of active or inactive are those of the source. The rule behind the calls is not given here.

Key:
Escherichia coli [1] = experiment: Antibacterial activity against Escherichia coli assessed as inhibition of bacterial growth by CLSI based continuous dilution method; type: functional
Acinetobacter baumannii = experiment: Antibacterial activity against Acinetobacter baumannii assessed as inhibition of bacterial growth by CLSI based continuous dilution method; type: functional
Aspergillus fumigatus = experiment: Antifungal activity against Aspergillus fumigatus assessed as inhibition of fungal growth by CLSI based continuous dilution method; type: functional, organism-based
Enterococcus faecalis = experiment: Antibacterial activity against Enterococcus faecalis assessed as inhibition of bacterial growth by CLSI based continuous dilution method; type: functional
Staphylococcus aureus [2] = experiment: Antibacterial activity against Staphylococcus aureus ATCC 29213 assessed as inhibition of bacterial growth by CLSI based continuous dilution method; type: functional
Staphylococcus aureus [3] = experiment: Antibacterial activity against methicillin-resistant Staphylococcus aureus assessed as inhibition of bacterial growth by CLSI based continuous dilution method; type: functional
Pseudomonas aeruginosa [4] = experiment: Antibacterial activity against Pseudomonas aeruginosa assessed as inhibition of bacterial growth by CLSI based continuous dilution method; type: functional
Klebsiella pneumoniae = experiment: Antibacterial activity against Klebsiella pneumoniae assessed as inhibition of bacterial growth by CLSI based continuous dilution method; type: functional
Pseudomonas aeruginosa [5] = experiment: Antibacterial activity against Pseudomonas aeruginosa ATCC 27853 assessed as inhibition of bacterial growth by CLSI based continuous dilution method; type: functional
Escherichia coli [6] = experiment: Antibacterial activity against Escherichia coli ATCC 25922 assessed as inhibition of bacterial growth by CLSI based continuous dilution method; type: functional
Staphylococcus aureus [7] = experiment: Antibacterial activity against Staphylococcus aureus ATCC 25923 assessed as inhibition of bacterial growth by CLSI based continuous dilution method; type: functional
Staphylococcus aureus [8] = experiment: Antibacterial activity against Staphylococcus aureus assessed as inhibition of bacterial growth by CLSI based continuous dilution method; type: functional

`COc1cc(/C=N/O)c2c(c1OCC(O)Cn1c([N+](=O)[O-])cnc1C)CN1CCc3cc4c(cc3C1C2)OCO4` (stereo not given) was tested, and the MIC (Escherichia coli [1]) was 15 µM (≈ 8.27 µg/mL), the MIC (Acinetobacter baumannii) was 58 µM (≈ 32 µg/mL) and the Activity (Aspergillus fumigatus) was “Active”. It also gave an MIC (Enterococcus faecalis) of 29 µM (≈ 16 µg/mL), an MIC (Staphylococcus aureus [2]) of 232 µM (≈ 128 µg/mL) and an MIC (Staphylococcus aureus [3]) of 116 µM (≈ 64 µg/mL). The MIC (Pseudomonas aeruginosa [4]) was 116 µM (≈ 64 µg/mL), the MIC (Klebsiella pneumoniae) was 464 µM (≈ 256 µg/mL) and the MIC (Pseudomonas aeruginosa [5]) was 58 µM (≈ 32 µg/mL). For the same compound, the MIC (Escherichia coli [6]) was 29 µM (≈ 16 µg/mL), the MIC (Staphylococcus aureus [7]) was 58 µM (≈ 32 µg/mL) and the MIC (Staphylococcus aureus [8]) was 58 µM (≈ 32 µg/mL).

In the case of `COc1ccc2cc3[n+](cc2c1OC)CCc1cc2c(cc1-3)OCO2` [BERBERINE], the MIC (Escherichia coli [1]) is reported as 380 µM, the MIC (Acinetobacter baumannii) is reported as 190 µM and the MIC (Enterococcus faecalis) is reported as 380 µM. The MIC (Staphylococcus aureus [2]) was 190 µM, the MIC (Staphylococcus aureus [3]) was 761 µM and the MIC (Pseudomonas aeruginosa [4]) was 1520 µM. The MIC (Klebsiella pneumoniae) was 190 µM, the MIC (Pseudomonas aeruginosa [5]) was 380 µM and the MIC (Escherichia coli [6]) was 380 µM. For the same compound, the MIC (Staphylococcus aureus [7]) was 380 µM and the MIC (Staphylococcus aureus [8]) was 380 µM.

`CCCCCCO/N=C/c1cc(OC)c(OCC(O)Cn2c([N+](=O)[O-])cnc2C)c2c1CC1c3cc4c(cc3CCN1C2)OCO4` (stereo not given) was tested, and the MIC (Escherichia coli [1]) was 805 µM (≈ 512 µg/mL), the MIC (Acinetobacter baumannii) was 805 µM (≈ 512 µg/mL) and the Activity (Aspergillus fumigatus) was “Active”. For the same compound, the MIC (Enterococcus faecalis) was 805 µM (≈ 512 µg/mL), the MIC (Staphylococcus aureus [2]) was 805 µM (≈ 512 µg/mL) and the MIC (Staphylococcus aureus [3]) was 805 µM (≈ 512 µg/mL). It also gave an MIC (Pseudomonas aeruginosa [4]) of 805 µM (≈ 512 µg/mL), an MIC (Klebsiella pneumoniae) of 805 µM (≈ 512 µg/mL) and an MIC (Pseudomonas aeruginosa [5]) of 805 µM (≈ 512 µg/mL). The MIC (Escherichia coli [6]) was 805 µM (≈ 512 µg/mL), the MIC (Staphylococcus aureus [7]) was 50 µM (≈ 31.8 µg/mL) and the MIC (Staphylococcus aureus [8]) was 805 µM (≈ 512 µg/mL).

In the case of `Cc1ncc([N+](=O)[O-])n1CCO` [METRONIDAZOLE], the MIC (Escherichia coli [1]) is reported as 1500 µM (≈ 256 µg/mL), the MIC (Acinetobacter baumannii) is reported as 1500 µM (≈ 256 µg/mL) and the MIC (Enterococcus faecalis) is reported as 748 µM (≈ 128 µg/mL). It also gave an MIC (Staphylococcus aureus [2]) of 1500 µM (≈ 256 µg/mL), an MIC (Staphylococcus aureus [3]) of 1500 µM (≈ 256 µg/mL) and an MIC (Pseudomonas aeruginosa [4]) of 1500 µM (≈ 256 µg/mL). For the same compound, the MIC (Klebsiella pneumoniae) was 374 µM (≈ 64 µg/mL), the MIC (Pseudomonas aeruginosa [5]) was 1500 µM (≈ 256 µg/mL) and the MIC (Escherichia coli [6]) was 1500 µM (≈ 256 µg/mL). It also gave an MIC (Staphylococcus aureus [7]) of 1500 µM (≈ 256 µg/mL) and an MIC (Staphylococcus aureus [8]) of 1500 µM (≈ 256 µg/mL).

For `COc1cc(/C=N/OC(C)(C)C)c2c(c1OCC(O)Cn1c([N+](=O)[O-])cnc1C)CN1CCc3cc4c(cc3C1C2)OCO4` (stereo not given), the MIC (Escherichia coli [1]) was 422 µM (≈ 256 µg/mL), the MIC (Acinetobacter baumannii) was 211 µM (≈ 128 µg/mL) and the Activity (Aspergillus fumigatus) was “Active”. The MIC (Enterococcus faecalis) was 211 µM (≈ 128 µg/mL), the MIC (Staphylococcus aureus [2]) was 211 µM (≈ 128 µg/mL) and the MIC (Staphylococcus aureus [3]) was 52 µM (≈ 31.6 µg/mL). The MIC (Pseudomonas aeruginosa [4]) was 211 µM (≈ 128 µg/mL), the MIC (Klebsiella pneumoniae) was 52 µM (≈ 31.6 µg/mL) and the MIC (Pseudomonas aeruginosa [5]) was 52 µM (≈ 31.6 µg/mL). It also gave an MIC (Escherichia coli [6]) of 211 µM (≈ 128 µg/mL), an MIC (Staphylococcus aureus [7]) of 52 µM (≈ 31.6 µg/mL) and an MIC (Staphylococcus aureus [8]) of 105 µM (≈ 63.8 µg/mL).

`CCCO/N=C/c1cc(OC)c(OCC(O)Cn2c([N+](=O)[O-])cnc2C)c2c1CC1c3cc4c(cc3CCN1C2)OCO4` (stereo not given) was tested, and the MIC (Escherichia coli [1]) was 863 µM (≈ 512 µg/mL), the MIC (Acinetobacter baumannii) was 863 µM (≈ 512 µg/mL) and the Activity (Aspergillus fumigatus) was “Active”. For the same compound, the MIC (Enterococcus faecalis) was 863 µM (≈ 512 µg/mL), the MIC (Staphylococcus aureus [2]) was 863 µM (≈ 512 µg/mL) and the MIC (Staphylococcus aureus [3]) was 863 µM (≈ 512 µg/mL). For the same compound, the MIC (Pseudomonas aeruginosa [4]) was 863 µM (≈ 512 µg/mL), the MIC (Klebsiella pneumoniae) was 863 µM (≈ 512 µg/mL) and the MIC (Pseudomonas aeruginosa [5]) was 863 µM (≈ 512 µg/mL). The MIC (Escherichia coli [6]) was 215 µM (≈ 128 µg/mL), the MIC (Staphylococcus aureus [7]) was 215 µM (≈ 128 µg/mL) and the MIC (Staphylococcus aureus [8]) was 863 µM (≈ 512 µg/mL).
